Legend:
Apera spica-venti [1] = test: Test Example 5: herbicidal effect by foliage application, plastic box (symbol L); type: in vivo; settings: 320 g/ha, 3 weeks after application
Summary of the method: (§1)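 Effect is rated 3 weeks after a foliar spray of water-diluted emulsion concentrate at a predetermined herbicide amount. Plants had grown 14 days in a 25° C. to 30° C. greenhouse from seed in sterilized diluvial soil.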

Galium spurium = test: Test Example 4: herbicidal effect by soil treatment (symbol Q); type: in vivo; settings: application herbicide amount 320 g/ha
Description: (§2) Herbicidal Effect Test by Soil Treatment
(§3) Sterilized diluvial soil was placed in a plastic box having a length of 21 cm, a width of 13 cm, and a depth of 7 cm. Each of the seeds of Digitaria ciliaris, Setaria viridis, Echinochloa crus-galli var. crus-galli, Avena fatua, Alopecurus myosuroides, Lolium multiflorum Lam., Apera spica-venti, Abutilon theophrasti, Amaranthus retroflexus, Chenopodium album, Stellaria media, Galium spurium, Veronica persica, corn, soybean, rice, wheat, beet, and rapeseed was sowed in a spot-like manner and was covered with the soil of a thickness of about 1.5 cm. Subsequently, the emulsion agent of the compound present invention prepared in accordance with Formulation Example 2 was diluted with water so as to be a predetermined herbicide amount and the diluted emulsion agent was uniformly applied to the surface of the soil with a small-size spray. The plastic box was placed in a greenhouse of 25° C. to 30° C. to grow plant. 3 weeks later from the herbicide application, the effect to each plant was investigated in accordance with the criteria of Test Example 1.

Apera spica-venti [2] = test: Test Example 4: herbicidal effect by soil treatment (symbol L); type: in vivo; settings: application herbicide amount 320 g/ha
Description: as §2, §3

wheat [3] = test: Test Example 4: effect on crop by soil treatment (symbol e); type: in vivo; settings: application herbicide amount 320 g/ha
Description: as §2
(§4) Sterilized diluvial soil was placed in a plastic box having a length of 21 cm, a width of 13 cm, and a depth of 7 cm. Each of the seeds of Digitaria ciliaris, Setaria viridis, Echinochloa crus-galli var. crus-galli, Avena fatua, Alopecurus myosuroides, Lolium multiflorum Lam., Apera spica-venti, Abutilon theophrasti, Amaranthus retroflexus, Chenopodium album, Stellaria media, Galium spurium, Veronica persica, corn, soybean, rice, wheat, beet, and rapeseed was sowed in a spot-like manner and was covered with the soil of a thickness of about 1.5 cm. […] The plastic box was placed in a greenhouse of 25° C. to 30° C. to grow plant.

Digitaria ciliaris [4] = test: Test Example 5: herbicidal effect by foliage application, plastic box (symbol F); type: in vivo; settings: 320 g/ha, 3 weeks after application
Summary of the method: as §1

beet [5] = test: Test Example 5: effect on crop by foliage application, plastic box (symbol f); type: in vivo; settings: 320 g/ha, 3 weeks after application
Summary of the method: (§5)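 Seeds were sown in spots in sterilized diluvial soil held in a plastic box 21 cm × 13 cm × 7 cm deep, covered with about 1.5 cm of soil, and grown in a greenhouse at 25° C. to 30° C.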

soybean [6] = test: Test Example 5: effect on crop by foliage application, plastic box (symbol d); type: in vivo; settings: 320 g/ha, 3 weeks after application
Summary of the method: as §5

Abutilon theophrasti [7] = test: Test Example 4: herbicidal effect by soil treatment (symbol M); type: in vivo; settings: application herbicide amount 320 g/ha
Description: as §2, §3

rice plant = test: Test Example 5: effect on crop by foliage application, plastic box (symbol b); type: in vivo; settings: 320 g/ha, 3 weeks after application
Summary of the method: as §5

soybean [8] = test: Test Example 4: effect on crop by soil treatment (symbol d); type: in vivo; settings: application herbicide amount 320 g/ha
Description: as §2, §4

Chenopodium album [9] = test: Test Example 4: herbicidal effect by soil treatment (symbol O); type: in vivo; settings: application herbicide amount 320 g/ha
Description: as §2, §3

Amaranthus retroflexus [10] = test: Test Example 5: herbicidal effect by foliage application, plastic box (symbol N); type: in vivo; settings: 320 g/ha, 3 weeks after application
Summary of the method: as §1

[11] = test system: Echinochloa crus-galli var. crus-galli; test: Test Example 5: herbicidal effect by foliage application, plastic box (symbol H); type: in vivo; settings: 320 g/ha, 3 weeks after application
Summary of the method: as §1

Stellaria media [12] = test: Test Example 5: herbicidal effect by foliage application, plastic box (symbol P); type: in vivo; settings: 320 g/ha, 3 weeks after application
Summary of the method: as §1

Setaria viridis [13] = test: Test Example 5: herbicidal effect by foliage application, plastic box (symbol G); type: in vivo; settings: 320 g/ha, 3 weeks after application
Summary of the method: as §1

Alopecurus myosuroides [14] = test: Test Example 5: herbicidal effect by foliage application, plastic box (symbol J); type: in vivo; settings: 320 g/ha, 3 weeks after application
Summary of the method: as §1

wheat [15] = test: Test Example 5: effect on crop by foliage application, plastic box (symbol e); type: in vivo; settings: 320 g/ha, 3 weeks after application
Summary of the method: as §5

beet [16] = test: Test Example 4: effect on crop by soil treatment (symbol f); type: in vivo; settings: application herbicide amount 320 g/ha
Description: as §2, §4

Chenopodium album [17] = test: Test Example 5: herbicidal effect by foliage application, plastic box (symbol O); type: in vivo; settings: 320 g/ha, 3 weeks after application
Summary of the method: as §1

Digitaria ciliaris [18] = test: Test Example 4: herbicidal effect by soil treatment (symbol F); type: in vivo; settings: application herbicide amount 320 g/ha
Description: as §2, §3

Monochoria vaginalis = test: Test Example 2: herbicidal activity, application during weed generation in submerged conditions (symbol C); type: in vivo; settings: Table 23; application herbicide amount 320 g/ha; grade 0-5 by criteria of Test Example 1
Summary of the method: (§6)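 Alluvial soil in pots was flooded to a 4 cm water depth and sown with a mix of the three weed species, then grown in a greenhouse at 25° C. to 30° C. At the one- to two-leaf stage, an emulsifiable formulation diluted in water to a set dose was applied to the water surface. Effects were scored visually 3 weeks later.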

Avena fatua [19] = test: Test Example 5: herbicidal effect by foliage application, plastic box (symbol I); type: in vivo; settings: 320 g/ha, 3 weeks after application
Summary of the method: as §1

rapeseed [20] = test: Test Example 5: effect on crop by foliage application, plastic box (symbol g); type: in vivo; settings: 320 g/ha, 3 weeks after application
Summary of the method: as §5

Setaria viridis [21] = test: Test Example 4: herbicidal effect by soil treatment (symbol G); type: in vivo; settings: application herbicide amount 320 g/ha
Description: as §2, §3

Avena fatua [22] = test: Test Example 4: herbicidal effect by soil treatment (symbol I); type: in vivo; settings: application herbicide amount 320 g/ha
Description: as §2, §3

Lolium multiflorum Lam. [23] = test: Test Example 5: herbicidal effect by foliage application, plastic box (symbol K); type: in vivo; settings: 320 g/ha, 3 weeks after application
Summary of the method: as §1

Scirpus juncoides = test: Test Example 2: herbicidal activity, application during weed generation in submerged conditions (symbol B); type: in vivo; settings: Table 23; application herbicide amount 320 g/ha; grade 0-5 by criteria of Test Example 1
Summary of the method: as §6

Alopecurus myosuroides [24] = test: Test Example 4: herbicidal effect by soil treatment (symbol J); type: in vivo; settings: application herbicide amount 320 g/ha
Description: as §2, §3

corn [25] = test: Test Example 5: effect on crop by foliage application, plastic box (symbol c); type: in vivo; settings: 320 g/ha, 3 weeks after application
Summary of the method: as §5

Veronica persica [26] = test: Test Example 4: herbicidal effect by soil treatment (symbol R); type: in vivo; settings: application herbicide amount 320 g/ha
Description: as §2, §3

Abutilon theophrasti [27] = test: Test Example 5: herbicidal effect by foliage application, plastic box (symbol M); type: in vivo; settings: 320 g/ha, 3 weeks after application
Summary of the method: as §1

[28] = test system: Echinochloa oryzacola Vasing.; test: Test Example 2: herbicidal activity, application during weed generation in submerged conditions (symbol A); type: in vivo; settings: Table 23; application herbicide amount 320 g/ha; grade 0-5 by criteria of Test Example 1
Summary of the method: as §6

[29] = test system: Echinochloa crus-galli var. crus-galli; test: Test Example 4: herbicidal effect by soil treatment (symbol H); type: in vivo; settings: application herbicide amount 320 g/ha
Description: as §2, §3

Amaranthus retroflexus [30] = test: Test Example 4: herbicidal effect by soil treatment (symbol N); type: in vivo; settings: application herbicide amount 320 g/ha
Description: as §2, §3

rice = test: Test Example 4: effect on crop by soil treatment (symbol b); type: in vivo; settings: application herbicide amount 320 g/ha
Description: as §2, §4

corn [31] = test: Test Example 4: effect on crop by soil treatment (symbol c); type: in vivo; settings: application herbicide amount 320 g/ha
Description: as §2, §4

Lolium multiflorum Lam. [32] = test: Test Example 4: herbicidal effect by soil treatment (symbol K); type: in vivo; settings: application herbicide amount 320 g/ha
Description: as §2, §3

Veronica persica [33] = test: Test Example 5: herbicidal effect by foliage application, plastic box (symbol R); type: in vivo; settings: 320 g/ha, 3 weeks after application
Summary of the method: as §1

Stellaria media [34] = test: Test Example 4: herbicidal effect by soil treatment (symbol P); type: in vivo; settings: application herbicide amount 320 g/ha
Description: as §2, §3

rapeseed [35] = test: Test Example 4: effect on crop by soil treatment (symbol g); type: in vivo; settings: application herbicide amount 320 g/ha
Description: as §2, §4

## CON=C(C)CC1CC(OC)=C(c2c(C)cc(OCC(F)(F)F)cc2C)C1=O (centres unmarked) [6-042]
other
  melting point: 117 to 119 °C

## CC(=O)CC1CC(O)=C(c2c(C)cc(C3CC3)cc2C)C1=O (centres unmarked) [7-013]
Apera spica-venti [1]
  L: Apera spica-venti, herbicidal effect (criteria of Test Example 1): 0 (Herbicidal ratio of 5% or lower (almost no effect))
Galium spurium
  Herbicidal effect grade, Q: Galium spurium: 0 (Herbicidal ratio of 5% or lower (almost no effect))
Apera spica-venti [2]
  Herbicidal effect grade, L: Apera spica-venti: 0 (Herbicidal ratio of 5% or lower (almost no effect))
Wheat [3]
  Effect on crop grade, e: wheat: 0 (Herbicidal ratio of 5% or lower (almost no effect))
Digitaria ciliaris [4]
  F: Digitaria ciliaris, herbicidal effect (criteria of Test Example 1): 4 (Herbicidal ratio of 70% or higher and lower than 90%)
Beet [5]
  f: beet, effect on crop (criteria of Test Example 1): 0 (Herbicidal ratio of 5% or lower (almost no effect))
Soybean [6]
  d: soybean, effect on crop (criteria of Test Example 1): 0 (Herbicidal ratio of 5% or lower (almost no effect))
Abutilon theophrasti [7]
  Herbicidal effect grade, M: Abutilon theophrasti: 0 (Herbicidal ratio of 5% or lower (almost no effect))
Rice plant
  b: directly sowed rice plant, effect on crop (criteria of Test Example 1): 1 (Herbicidal ratio of 5% or higher and lower than 20%)
Soybean [8]
  Effect on crop grade, d: soybean: 0 (Herbicidal ratio of 5% or lower (almost no effect))
Chenopodium album [9]
  Herbicidal effect grade, O: Chenopodium album: 0 (Herbicidal ratio of 5% or lower (almost no effect))
Amaranthus retroflexus [10]
  N: Amaranthus retroflexus, herbicidal effect (criteria of Test Example 1): 5 (Herbicidal ratio of 90% or more (almost completely withered))
[11]
  H: Echinochloa crus-galli var. crus-galli, herbicidal effect (criteria of Test Example 1): 1 (Herbicidal ratio of 5% or higher and lower than 20%)
Stellaria media [12]
  P: Stellaria media, herbicidal effect (criteria of Test Example 1): 0 (Herbicidal ratio of 5% or lower (almost no effect))
Setaria viridis [13]
  G: Setaria viridis, herbicidal effect (criteria of Test Example 1): 2 (Herbicidal ratio of 20% or higher and lower than 40%)
Alopecurus myosuroides [14]
  J: Alopecurus myosuroides, herbicidal effect (criteria of Test Example 1): 3 (Herbicidal ratio of 40% or higher and lower than 70%)
Wheat [15]
  e: wheat, effect on crop (criteria of Test Example 1): 0 (Herbicidal ratio of 5% or lower (almost no effect))
Beet [16]
  Effect on crop grade, f: beet: 0 (Herbicidal ratio of 5% or lower (almost no effect))
Chenopodium album [17]
  O: Chenopodium album, herbicidal effect (criteria of Test Example 1): 0 (Herbicidal ratio of 5% or lower (almost no effect))
Digitaria ciliaris [18]
  Herbicidal effect grade, F: Digitaria ciliaris: 3 (Herbicidal ratio of 40% or higher and lower than 70%)
Monochoria vaginalis
  Herbicidal effect grade, C: Monochoria vaginalis: 0 (Herbicidal ratio of 5% or lower (almost no effect))
Avena fatua [19]
  I: Avena fatua, herbicidal effect (criteria of Test Example 1): 1 (Herbicidal ratio of 5% or higher and lower than 20%)
Rapeseed [20]
  g: rapeseed, effect on crop (criteria of Test Example 1): 1 (Herbicidal ratio of 5% or higher and lower than 20%)
Setaria viridis [21]
  Herbicidal effect grade, G: Setaria viridis: 0 (Herbicidal ratio of 5% or lower (almost no effect))
Avena fatua [22]
  Herbicidal effect grade, I: Avena fatua: 0 (Herbicidal ratio of 5% or lower (almost no effect))
Lolium multiflorum Lam. [23]
  K: Lolium multiflorum Lam., herbicidal effect (criteria of Test Example 1): 3 (Herbicidal ratio of 40% or higher and lower than 70%)
Scirpus juncoides
  Herbicidal effect grade, B: Scirpus juncoides: 0 (Herbicidal ratio of 5% or lower (almost no effect))
Alopecurus myosuroides [24]
  Herbicidal effect grade, J: Alopecurus myosuroides: 0 (Herbicidal ratio of 5% or lower (almost no effect))
Corn [25]
  c: corn, effect on crop (criteria of Test Example 1): 0 (Herbicidal ratio of 5% or lower (almost no effect))
Veronica persica [26]
  Herbicidal effect grade, R: Veronica persica: 0 (Herbicidal ratio of 5% or lower (almost no effect))
Abutilon theophrasti [27]
  M: Abutilon theophrasti, herbicidal effect (criteria of Test Example 1): 0 (Herbicidal ratio of 5% or lower (almost no effect))
[28]
  Herbicidal effect grade, A: Echinochloa oryzacola Vasing.: 2 (Herbicidal ratio of 20% or higher and lower than 40%)
[29]
  Herbicidal effect grade, H: Echinochloa crus-galli var. crus-galli: 0 (Herbicidal ratio of 5% or lower (almost no effect))
Amaranthus retroflexus [30]
  Herbicidal effect grade, N: Amaranthus retroflexus: 0 (Herbicidal ratio of 5% or lower (almost no effect))
rice
  Effect on crop grade, b: directly sowed rice plant: 4 (Herbicidal ratio of 70% or higher and lower than 90%)
Corn [31]
  Effect on crop grade, c: corn: 0 (Herbicidal ratio of 5% or lower (almost no effect))
Lolium multiflorum Lam. [32]
  Herbicidal effect grade, K: Lolium multiflorum Lam.: 0 (Herbicidal ratio of 5% or lower (almost no effect))
Veronica persica [33]
  R: Veronica persica, herbicidal effect (criteria of Test Example 1): 0 (Herbicidal ratio of 5% or lower (almost no effect))
Stellaria media [34]
  Herbicidal effect grade, P: Stellaria media: 0 (Herbicidal ratio of 5% or lower (almost no effect))
Rapeseed [35]
  Effect on crop grade, g: rapeseed: 0 (Herbicidal ratio of 5% or lower (almost no effect))

— US11000033B2, “Ketone or oxime compound, and herbicide” (NISSAN CHEMICAL CORPORATION, priority 2014, dated 2021)
